Here are results for two compounds from patent US6551632B2, “Methods and compositions for treating inflammatory bowel disease” (priority 1997, dated 2003).

Each structure is given as a SMILES string.

The subject of this data set is Patients with Inflammatory Bowel Disease. Description: Treatment of patients with inflammatory bowel disease using a combination of anti-atypical mycobacterial agents (Example 1).

Description: Fifteen patients, aged 13 to 58, were treated with various protocols of antimycobacterial agents. Twelve patients had Crohn's disease and three ulcerative colitis. Presence of Mycobacterium paratuberculosis was identified in nine of these patients. A combination of clarithromycin (250 mg to 1.5 grams per day), rifabutin (150 mg to 750 mg per day) and clofazimine (3 mg/kg to 10 mg/kg) was used.
After four months of treatment, five patients were examined colonoscopically.
In these three patients, a combination of clarithromycin and rifabutin (same dosages as above) together with added clofazimine, 2 mg per kg, made up a preferred therapy. […] No prednisone, azathioprine or 5ASA compounds were used. […] This dose was increased at one stage to 50 mg per kg in an attempt to reverse the inflammatory process and then reduced to 10 mg per kg. […] In yet a further patient four drugs were used simultaneously because of resistance to clarithromycin. Azithromycin, 500 mg each morning (range 250-1,500 mg) was used in combination with rifabutin, clofazimine, and ethambutol.

In the case of `CC[C@@H](CO)NCCN[C@@H](CC)CO` [ethambutol], the “clinical response after rifabutin was changed to ethambutol” value (one patient, ethambutol 400 mg twice daily, raised to 50 mg per kg, then 10 mg per kg, with clarithromycin and clofazimine) is “reversal of the inflammatory process with loss of diarrhoea, loss of bleeding, and ultimately loss of urgency”.

Regarding `CO[C@H]1/C=C/O[C@@]2(C)Oc3c(C)c(O)c4c(c3C2=O)C2=NC3(CCN(CC(C)C)CC3)NC2=C(NC(=O)/C(C)=C\C=C\[C@H](C)[C@H](O)[C@@H](C)[C@@H](O)[C@@H](C)[C@H](OC(C)=O)[C@@H]1C)C4=O` [rifabutin], the “sensitivity (adverse reaction)” value (one patient on the combination therapy) is “marked headaches and fever”.
